Read-outs that look alike come from different tables or passages of the source. One block for each compound: values may come before it. Bridge positions count the residues as written; N and C are the ends. Peptide text beside a SMILES is read from it.
Experiments:
[1] = molecular target: T1, integrin αvβ8 (Homo sapiens, UniProt P06756+P26012); test: AlphaLISA competition assay vs LAP, biotinylated αvβ8; format: binding
[2] = molecular target: T2, integrin αvβ6 (Homo sapiens, UniProt P06756+P18564); test: AlphaLISA competition assay vs LAP, biotinylated αvβ6; format: binding
[3] = molecular target: T2, integrin αvβ6; test: ELISA competition assay, integrin αvβ6 binding to LAP; details: mean
[4] = molecular target: T3, Mouse αvβ6 (Mus musculus, UniProt P43406+Q9Z0T9); test: ELISA competition assay, mouse integrin αvβ6; format: binding
T3 sequence (P43406 31-988 limits assumed): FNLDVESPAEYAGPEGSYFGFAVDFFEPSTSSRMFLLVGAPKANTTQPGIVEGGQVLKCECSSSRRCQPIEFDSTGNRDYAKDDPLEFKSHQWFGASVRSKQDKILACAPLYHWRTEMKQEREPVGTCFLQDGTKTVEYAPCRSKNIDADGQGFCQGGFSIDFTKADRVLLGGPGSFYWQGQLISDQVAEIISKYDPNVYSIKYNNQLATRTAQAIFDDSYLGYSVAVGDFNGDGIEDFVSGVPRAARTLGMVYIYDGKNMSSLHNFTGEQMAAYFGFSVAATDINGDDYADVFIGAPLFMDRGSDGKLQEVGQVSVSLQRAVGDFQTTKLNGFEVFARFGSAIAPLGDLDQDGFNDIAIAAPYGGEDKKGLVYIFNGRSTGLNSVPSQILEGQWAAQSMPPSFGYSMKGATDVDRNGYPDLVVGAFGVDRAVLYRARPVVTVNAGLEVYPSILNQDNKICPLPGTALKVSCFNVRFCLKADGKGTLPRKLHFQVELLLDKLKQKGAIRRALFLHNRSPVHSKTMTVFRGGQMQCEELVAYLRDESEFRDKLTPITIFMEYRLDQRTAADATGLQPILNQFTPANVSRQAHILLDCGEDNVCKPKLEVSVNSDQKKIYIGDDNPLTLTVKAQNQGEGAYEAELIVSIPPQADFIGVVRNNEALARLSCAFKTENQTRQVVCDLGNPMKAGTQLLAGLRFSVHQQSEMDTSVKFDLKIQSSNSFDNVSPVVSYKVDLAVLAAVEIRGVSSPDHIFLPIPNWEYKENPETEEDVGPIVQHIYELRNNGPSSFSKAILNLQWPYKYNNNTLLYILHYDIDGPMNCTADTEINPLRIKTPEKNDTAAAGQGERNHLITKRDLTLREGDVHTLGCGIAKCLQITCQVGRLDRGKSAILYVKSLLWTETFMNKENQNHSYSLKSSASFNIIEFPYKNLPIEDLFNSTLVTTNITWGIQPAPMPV
T3 sequence (Q9Z0T9 22-707 limits assumed): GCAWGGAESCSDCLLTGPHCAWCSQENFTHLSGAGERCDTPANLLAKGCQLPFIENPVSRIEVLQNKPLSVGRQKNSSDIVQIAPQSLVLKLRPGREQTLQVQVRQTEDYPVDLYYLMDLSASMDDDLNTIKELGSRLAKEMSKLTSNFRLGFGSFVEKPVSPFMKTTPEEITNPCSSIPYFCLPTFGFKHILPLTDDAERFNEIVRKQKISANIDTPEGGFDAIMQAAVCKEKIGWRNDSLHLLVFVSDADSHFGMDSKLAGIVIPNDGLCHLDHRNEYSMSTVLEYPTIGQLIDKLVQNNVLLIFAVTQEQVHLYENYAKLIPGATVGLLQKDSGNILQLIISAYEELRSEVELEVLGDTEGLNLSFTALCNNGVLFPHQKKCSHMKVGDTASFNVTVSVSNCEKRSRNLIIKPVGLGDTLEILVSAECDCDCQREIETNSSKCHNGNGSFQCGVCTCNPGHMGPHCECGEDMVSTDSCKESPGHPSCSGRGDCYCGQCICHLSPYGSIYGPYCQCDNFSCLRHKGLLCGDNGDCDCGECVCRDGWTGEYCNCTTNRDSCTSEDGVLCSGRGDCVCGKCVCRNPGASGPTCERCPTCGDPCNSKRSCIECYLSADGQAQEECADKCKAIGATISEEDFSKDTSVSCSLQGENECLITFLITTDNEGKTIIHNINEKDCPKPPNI

[5] = molecular target: integrin αvβ1 (Homo sapiens, UniProt P05556+P06756); test: ELISA competition assay, integrin αvβ1; format: binding
[6] = molecular target: integrin α5β1 (Homo sapiens, UniProt P05556+P08648); test: ELISA competition assay, integrin α5β1; format: binding
[7] = molecular target: integrin αvβ5 (Homo sapiens, UniProt P06756+P18084); test: ELISA competition assay, integrin αvβ5; format: binding
[8] = molecular target: integrin α8β1 (Homo sapiens, UniProt P05556+P53708); test: ELISA competition assay, integrin α8β1; format: binding
[9] = molecular target: integrin αvβ3 (Homo sapiens, UniProt P05106+P06756); test: ELISA competition assay, integrin αvβ3; format: binding
[10] = molecular target: T4, integrin αIIbβ3 (Homo sapiens, UniProt P05106+P08514); test: ELISA competition assay, integrin αIIbβ3; format: binding
T4 sequence (P08514 32-993 limits assumed): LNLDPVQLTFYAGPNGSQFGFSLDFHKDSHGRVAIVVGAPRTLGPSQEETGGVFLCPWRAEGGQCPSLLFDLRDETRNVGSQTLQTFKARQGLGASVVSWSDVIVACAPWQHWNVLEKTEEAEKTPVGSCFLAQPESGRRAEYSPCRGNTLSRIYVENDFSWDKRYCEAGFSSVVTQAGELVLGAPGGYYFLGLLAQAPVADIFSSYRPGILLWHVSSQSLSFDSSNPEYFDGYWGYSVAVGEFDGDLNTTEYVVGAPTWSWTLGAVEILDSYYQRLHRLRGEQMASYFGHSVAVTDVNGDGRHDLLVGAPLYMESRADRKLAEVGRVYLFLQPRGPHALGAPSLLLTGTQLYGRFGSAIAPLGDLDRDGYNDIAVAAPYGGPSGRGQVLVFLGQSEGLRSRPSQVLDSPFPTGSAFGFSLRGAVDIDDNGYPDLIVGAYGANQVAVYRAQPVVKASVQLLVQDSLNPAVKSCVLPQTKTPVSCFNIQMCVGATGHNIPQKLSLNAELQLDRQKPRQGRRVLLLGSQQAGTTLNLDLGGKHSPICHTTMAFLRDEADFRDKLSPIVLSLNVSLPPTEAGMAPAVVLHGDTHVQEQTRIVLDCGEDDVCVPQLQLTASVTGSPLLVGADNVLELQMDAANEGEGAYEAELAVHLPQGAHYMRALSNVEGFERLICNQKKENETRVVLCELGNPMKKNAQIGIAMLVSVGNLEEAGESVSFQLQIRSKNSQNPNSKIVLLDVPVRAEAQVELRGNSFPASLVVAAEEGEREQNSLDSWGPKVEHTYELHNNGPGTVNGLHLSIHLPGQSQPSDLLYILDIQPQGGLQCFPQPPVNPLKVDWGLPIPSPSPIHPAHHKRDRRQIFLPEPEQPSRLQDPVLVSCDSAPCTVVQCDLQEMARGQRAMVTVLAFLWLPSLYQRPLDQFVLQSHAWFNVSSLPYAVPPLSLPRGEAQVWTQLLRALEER
T4 sequence (P05106 27-718 limits assumed): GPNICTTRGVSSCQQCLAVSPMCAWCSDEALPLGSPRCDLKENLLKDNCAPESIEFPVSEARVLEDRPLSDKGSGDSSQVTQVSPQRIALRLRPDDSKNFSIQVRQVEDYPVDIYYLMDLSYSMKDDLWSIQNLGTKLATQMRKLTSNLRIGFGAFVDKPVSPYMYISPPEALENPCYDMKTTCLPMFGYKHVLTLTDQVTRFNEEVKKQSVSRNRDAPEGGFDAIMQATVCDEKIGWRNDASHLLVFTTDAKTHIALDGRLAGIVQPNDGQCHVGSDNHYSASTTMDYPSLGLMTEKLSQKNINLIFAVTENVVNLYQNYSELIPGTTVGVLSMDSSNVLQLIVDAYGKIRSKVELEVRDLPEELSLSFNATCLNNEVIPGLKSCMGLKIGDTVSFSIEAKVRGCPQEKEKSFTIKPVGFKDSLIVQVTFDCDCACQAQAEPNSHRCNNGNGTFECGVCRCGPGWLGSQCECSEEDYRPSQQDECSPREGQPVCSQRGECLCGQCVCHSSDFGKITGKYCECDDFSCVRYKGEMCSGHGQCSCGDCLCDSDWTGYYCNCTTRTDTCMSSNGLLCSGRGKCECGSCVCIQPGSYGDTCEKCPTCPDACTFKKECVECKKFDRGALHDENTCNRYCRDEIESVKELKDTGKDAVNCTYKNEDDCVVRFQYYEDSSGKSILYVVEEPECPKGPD

[11] = molecular target: T1, integrin αvβ8; test: ELISA competition assay, integrin αvβ8 binding to LAP
[12] = tested on: αvβ6/8 vs other RGD-integrins; test: Selectivity and potency gain for αvβ6/8, worked out from integrin IC50 values; format: binding, human; details: 24 and 30 vs 14; 35 vs 28; 36 vs 30; 47 vs 36
[13] = αvβ6 IC50, ELISA competition vs LAP, n ≥ 3

Compound: CC[C@H](C)[C@H](NC(=O)[C@H](CC(C)C)NC(=O)[C@H](CC(=O)O)NC(=O)CNC(=O)[C@H](CCCNC(=N)N)NC(=O)[C@H](CCC(N)=O)NC(=O)[C@H](Cc1ccccc1)NC(=O)[C@H](Cc1ccc(O)cc1)NC(=O)[C@@H]1CCC(=O)NCC(=O)NCC(=O)N[C@@H](C)C(=O)NCC(=O)N[C@@H](Cc2c[nH]cn2)C(=O)N[C@@H](C(C)C)C(=O)N2CCC[C@H]2C(=O)N1)C(=O)N[C@@H](CO)C(=O)N[C@@H](Cc1ccccc1)C(=O)N[C@@H](Cc1ccc(O)cc1)C(=O)NCC(=O)O [lassotide 21] (GGAGHVPEYFQRGDLISFYG-OH; lactam N-8; C-terminus assumed)
IC50 [1]: 39 nM
IC50 [2]: 16 nM
IC50 ([3]; Human αvß6 IC50, ELISA run in triplicate, Table S1): 40 nM
IC50 [4]: 44 nM

Compound: CC(C)C[C@H](NC(=O)[C@H](CC(=O)O)NC(=O)CNC(=O)[C@H](CCCNC(=N)N)NC(=O)[C@@H](NC(=O)[C@H](Cc1ccccc1)NC(=O)[C@H](Cc1ccc(O)cc1)NC(=O)[C@@H]1CCC(=O)NCC(=O)NCC(=O)N[C@@H](CCCNC(=N)N)C(=O)NCC(=O)N[C@@H](Cc2c[nH]cn2)C(=O)N[C@@H](C(C)C)C(=O)N2CCC[C@H]2C(=O)N1)C(C)C)C(=O)N[C@@H](CCC(N)=O)C(=O)N[C@@H](CO)C(=O)N[C@@H](Cc1ccccc1)C(=O)N[C@@H](Cc1ccc(O)cc1)C(=O)NCC(=O)O [lassotide 38] (GGRGHVPEYFVRGDLQSFYG-OH; lactam N-8)
IC50 [5]: 13 nM
IC50 [6]: 397 nM
IC50 [7]: > 10000 nM
IC50 [8]: 1290 nM
IC50 [3, 13]: 3 nM
IC50 [4]: 4 nM
IC50 [9]: 185 nM
IC50 [10]: 126 nM

IC50 ([5]; read-out: αvβ1 IC50, ELISA competition): 1 nM
IC50 ([6]; read-out: α5β1 IC50, ELISA competition): 18 nM
IC50 ([7]; read-out: αvβ5 IC50, ELISA competition): 0.08 nM
IC50 ([8]; read-out: α8β1 IC50, ELISA competition): 9 nM
IC50 ([3]; read-out: Human αvß6 IC50, ELISA run in triplicate, Table S1): 1 nM
IC50 ([3]; read-out: αvβ6 IC50, ELISA competition vs LAP, n ≥ 3): 1.3 nM
IC50 ([4]; read-out: Mouse αvß6 IC50, ELISA run in triplicate, mean, Table S1): 2 nM
IC50 ([9]; read-out: αvβ3 IC50, ELISA competition, mean, n ≥ 3): 0.7 nM
IC50 ([11]; read-out: αvβ8 IC50, ELISA competition vs LAP, mean, n ≥ 3): 0.7 nM
Compound: COc1ccc([C@H](CC(=O)O)N2CCN(CCCc3ccc4c(n3)NCCC4)C2=O)cn1 [MK-0429, reference compound]

Compound: CC[C@H](C)[C@H](NC(=O)[C@H](CC(C)C)NC(=O)[C@H](CC(=O)O)NC(=O)CNC(=O)[C@H](CCCNC(=N)N)NC(=O)[C@@H](NC(=O)[C@H](Cc1ccccc1)NC(=O)[C@H](Cc1ccc(O)cc1)NC(=O)[C@@H]1CCC(=O)NCC(=O)NCC(=O)N[C@@H](CCCCN)C(=O)NCC(=O)N[C@@H](Cc2c[nH]cn2)C(=O)N[C@@H](C(C)C)C(=O)N2CCC[C@H]2C(=O)N1)C(C)C)C(=O)N[C@@H](CO)C(=O)N[C@@H](Cc1ccccc1)C(=O)N[C@@H](Cc1ccc(O)cc1)C(=O)N[C@@H](CCCCN)C(=O)O [lassotide 35] (GGKGHVPEYFVRGDLISFYK-OH; lactam N-8; C-terminus assumed)
IC50 [3, 13]: 25 nM
improvement in potency (IC50) for αvβ6/8 relative to parent lassotide [12]: up to 2 fold
IC50 [11]: 36 nM

Source: paper doi:10.1101/2025.01.28.635346v1 (bioRxiv, 2025)
